Experimental data published in publication PMC6332596 (Journal of Hematology & Oncology, 2019).
Read-outs that look alike come from different tables or passages of the source.

Legend:
VEGFR1 = test system: VEGFR1; design: method as in PMID 28004478; settings: cited from earlier work
c-Kit = test system: c-Kit; design: method as in PMID 28004478; settings: cited from earlier work
VEGFR3 = test system: VEGFR3; design: method as in PMID 28004478; settings: cited from earlier work
CSF-1R = test system: CSF-1R; design: method as in PMID 28004478; settings: cited from earlier work
[1] = test system: human tumor xenograft models inoculated with human cancer cell lines derived from colon, lung, liver, or stomach cancers; design: method as in PMID 28004478; settings: cited from earlier work
[2] = Pharmacokinetics of plasma chiauranib after single and multiple oral doses in patients (LC-MS/MS); type: in vivo, human
Method: Three milliliters of venous blood samples was drawn into heparinized tubes before drug administration as well as at 1, 2, 4, 6, 8, 12, 24, 48, 72, 96, 120, and 144 h post-dose. […] Three milliliters of venous blood samples was drawn into heparinized tubes before administration as well as at 1, 2, 4, 8, 12, and 24 h post the oral dose on day 28. […] Samples were centrifuged immediately at 3600×g for 10 min at 4 °C, and the plasma fractions were separated and stored at − 20 °C until analysis.
The intra- and inter-day precisions and accuracies (relative standard deviation, %RSD) were in the range of 1.75–6.33%, and − 7.88–9.00%, respectively. The extraction recovery (relative standard deviation, %RSD) was 1.32–5.16%.
Descriptive statistics were used for baseline characteristics, safety assessments, pharmacokinetic variables (including Cmax, Tmax, AUC, and t1/2) and exploratory efficacy assessments, including tumor response and time to progression. Continuous variables were summarized with means, standard deviations (SD), medians, minimums, and maximums. Categorical variables were summarized by counts and by percentage of patients in corresponding categories. P values < 0.05 were considered statistically significant. Statistical analyses were performed using SAS® v9.4 (Cary, NC).

[3] = test system: off-target non-receptor kinases, proteins, GPCR, and ion channels; design: method as in PMID 28004478; settings: cited from earlier work
VEGFR2 = test system: VEGFR2; design: method as in PMID 28004478; settings: cited from earlier work
[4] = Day28, multiple dose 10 mg once daily (n = 2)
[5] = Day28, multiple dose 20 mg once daily (n = 6)
[6] = Day28, multiple dose 35 mg once daily (n = 3)
[7] = Day28, multiple dose 50 mg once daily (n = 3)
[8] = Day28, multiple dose 65 mg once daily (n = 4)
[9] = human, plasma, oral, 10 mg, Day1, single dose 10 mg (n = 2)
[10] = human, plasma, oral, 10 mg, Day28, multiple dose 10 mg once daily (n = 2)
[11] = human, plasma, oral, 20 mg, Day1, single dose 20 mg (n = 6)
[12] = human, plasma, oral, 20 mg, Day28, multiple dose 20 mg once daily (n = 6)
[13] = human, plasma, oral, 35 mg, Day1, single dose 35 mg (n = 3)
[14] = human, plasma, oral, 35 mg, Day28, multiple dose 35 mg once daily (n = 3)
[15] = human, plasma, oral, 50 mg, Day1, single dose 50 mg (n = 3)
[16] = human, plasma, oral, 50 mg, Day28, multiple dose 50 mg once daily (n = 3)
[17] = human, plasma, oral, 65 mg, Day1, single dose 65 mg (n = 4)
[18] = human, plasma, oral, 65 mg, Day28, multiple dose 65 mg once daily (n = 4)

## COc1ccc2c(Oc3ccc4c(C(=O)Nc5ccccc5N)cccc4c3)ccnc2c1 [chiauranib]
VEGFR1
  IC50: single-digit nanomolar range
c-Kit
  IC50: single-digit nanomolar range
VEGFR3
  IC50: single-digit nanomolar range
CSF-1R
  IC50: single-digit nanomolar range
[1]
  activity against human tumor xenograft models: broad activity
[2]; 10 to 65 mg, single and multiple dose
  dose dependence of plasma exposure: dose proportional and good linear pharmacokinetic profile
[2]; [4]
  Cav: 174 (9) ng/mL
  Ctrough: 122 (21) ng/mL
  DF: 1.1 (0.4)
[2]; [5]
  Cav: 257 (64) ng/mL
  Ctrough: 191 (89) ng/mL
  DF: 1.3 (0.6)
[2]; [6]
  Cav: 490 (336) ng/mL
  Ctrough: 330 (208) ng/mL
  DF: 0.8 (0.4)
[2]; [7]
  Cav: 604 (235) ng/mL
  Ctrough: 467 (166) ng/mL
  DF: 1.1 (0.3)
[2]; [8]
  Cav: 1010 (492) ng/mL
  Ctrough: 890 (662) ng/mL
  DF: 1.5 (0.8)
[2]; after first dose in run-in period, 10-65 mg, range from 1 to 4 h
  median peak time: 2 h
[2]; continuous once daily dosing
  increase of trough plasma concentration versus after first administration: twofold
[2]; [9]
  Cmax: 201 ng/mL
  Tmax: 2 h
[2]; human, plasma, oral, 10 mg, Day1, single dose 10 mg (n = 2), read-out: AUC0–24 h
  AUC(0-t): 2000 ng·h/mL
[2]; human, plasma, oral, 10 mg, Day1, single dose 10 mg (n = 2), read-out: AUC0–144 h
  AUC(0-t): 3580 ng·h/mL
[2]; [10]
  Cmax: 312 ng/mL
  Tmax: 2 h
[2]; human, plasma, oral, 10 mg, Day28, multiple dose 10 mg once daily (n = 2), read-out: AUC0–24 h
  AUC(0-t): 4180 ng·h/mL
[2]; [11]
  Cmax: 354 ng/mL
  Tmax: 2 h
[2]; human, plasma, oral, 20 mg, Day1, single dose 20 mg (n = 6), read-out: AUC0–24 h
  AUC(0-t): 3450 ng·h/mL
[2]; human, plasma, oral, 20 mg, Day1, single dose 20 mg (n = 6), read-out: AUC0–144 h
  AUC(0-t): 6820 ng·h/mL
[2]; [12]
  Cmax: 517 ng/mL
  Tmax: 2 h
[2]; human, plasma, oral, 20 mg, Day28, multiple dose 20 mg once daily (n = 6), read-out: AUC0–24 h
  AUC(0-t): 6180 ng·h/mL
[2]; [13]
  Cmax: 608 ng/mL
  Tmax: 1 h
[2]; human, plasma, oral, 35 mg, Day1, single dose 35 mg (n = 3), read-out: AUC0–24 h
  AUC(0-t): 5760 ng·h/mL
[2]; human, plasma, oral, 35 mg, Day1, single dose 35 mg (n = 3), read-out: AUC0–144 h
  AUC(0-t): 11900 ng·h/mL
[2]; [14]
  Cmax: 773 ng/mL
  Tmax: 4 h
[2]; human, plasma, oral, 35 mg, Day28, multiple dose 35 mg once daily (n = 3), read-out: AUC0–24 h
  AUC(0-t): 11800 ng·h/mL
[2]; [15]
  Cmax: 756 ng/mL
  Tmax: 1 h
[2]; human, plasma, oral, 50 mg, Day1, single dose 50 mg (n = 3), read-out: AUC0–24 h
  AUC(0-t): 7420 ng·h/mL
[2]; human, plasma, oral, 50 mg, Day1, single dose 50 mg (n = 3), read-out: AUC0–144 h
  AUC(0-t): 16400 ng·h/mL
[2]; [16]
  Cmax: 1120 ng/mL
  Tmax: 2 h
[2]; human, plasma, oral, 50 mg, Day28, multiple dose 50 mg once daily (n = 3), read-out: AUC0–24 h
  AUC(0-t): 14500 ng·h/mL
[2]; [17]
  Cmax: 1280 ng/mL
  Tmax: 1.5 h
[2]; human, plasma, oral, 65 mg, Day1, single dose 65 mg (n = 4), read-out: AUC0–24 h
  AUC(0-t): 11000 ng·h/mL
[2]; human, plasma, oral, 65 mg, Day1, single dose 65 mg (n = 4), read-out: AUC0–144 h
  AUC(0-t): 24800 ng·h/mL
[2]; [18]
  Cmax: 2240 ng/mL
  Tmax: 2 h
[2]; human, plasma, oral, 65 mg, Day28, multiple dose 65 mg once daily (n = 4), read-out: AUC0–24 h
  AUC(0-t): 24200 ng·h/mL
[2]; human, plasma, oral, after first dose in run-in period, 10-65 mg, read-out: terminal half-life (t1/2) (converted)
  half-life: 25.6 ± 6.73 h
[3]
  activity on off-targets: little activity
VEGFR2
  IC50: single-digit nanomolar range
